Molecules are shown by their SMILES. Where two headings read alike, the source gives them in different places.

In article PMC9611727, “Optimization of a Novel Mandelamide-Derived Pyrrolopyrimidine Series of PERK Inhibitors” (Pharmaceutics, 2022) one finds IC50 data, which are given here for 36 molecules.

One test deals with T1, PERK (Homo sapiens, UniProt Q9NZJ5).
T1 sequence (Q9NZJ5 30-1116): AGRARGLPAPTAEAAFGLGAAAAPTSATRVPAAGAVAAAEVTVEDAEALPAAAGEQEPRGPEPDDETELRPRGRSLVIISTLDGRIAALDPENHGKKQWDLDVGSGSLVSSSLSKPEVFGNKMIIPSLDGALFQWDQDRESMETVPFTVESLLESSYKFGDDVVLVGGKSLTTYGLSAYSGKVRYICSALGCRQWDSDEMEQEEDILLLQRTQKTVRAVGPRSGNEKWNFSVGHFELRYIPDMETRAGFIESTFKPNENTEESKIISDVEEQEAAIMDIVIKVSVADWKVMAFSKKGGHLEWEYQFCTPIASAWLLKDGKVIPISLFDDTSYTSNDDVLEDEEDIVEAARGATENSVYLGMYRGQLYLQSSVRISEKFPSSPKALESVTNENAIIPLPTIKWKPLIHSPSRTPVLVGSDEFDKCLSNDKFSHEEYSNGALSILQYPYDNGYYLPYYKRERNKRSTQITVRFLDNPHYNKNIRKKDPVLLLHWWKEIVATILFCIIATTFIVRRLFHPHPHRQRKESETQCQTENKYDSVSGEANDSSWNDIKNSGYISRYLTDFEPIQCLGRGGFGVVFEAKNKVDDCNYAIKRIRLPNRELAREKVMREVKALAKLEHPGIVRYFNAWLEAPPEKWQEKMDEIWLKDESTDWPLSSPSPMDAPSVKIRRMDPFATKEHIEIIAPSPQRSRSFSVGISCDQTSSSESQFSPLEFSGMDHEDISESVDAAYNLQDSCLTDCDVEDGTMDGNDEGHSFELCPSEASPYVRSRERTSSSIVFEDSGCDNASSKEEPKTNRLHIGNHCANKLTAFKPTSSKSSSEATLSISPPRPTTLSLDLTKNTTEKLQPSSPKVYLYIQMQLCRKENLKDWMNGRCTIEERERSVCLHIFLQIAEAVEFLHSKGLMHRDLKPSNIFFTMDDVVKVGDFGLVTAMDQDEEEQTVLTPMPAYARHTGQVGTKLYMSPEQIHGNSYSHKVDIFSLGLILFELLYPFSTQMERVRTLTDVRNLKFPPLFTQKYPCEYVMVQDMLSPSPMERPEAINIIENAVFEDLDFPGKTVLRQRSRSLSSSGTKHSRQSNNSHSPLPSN
The test can be described thus: PERK biochemical LanthaScreen TR-FRET assay (GFP-eIF2a phosphorylation). The protocol:
Methods used to evaluate biochemical PERK activity are described and published elsewhere. In brief, biochemical PERK activity is evaluated using a LanthaScreenTM ([…]) TR-FRET assay to detect phosphorylation of a GFP-tagged eIF2a substrate (ThermoFisher). Excitation at […] of a terbium chelate donor fluorophore in an eIF2a antibody results in energy transfer to GFP acceptor fluorophore upon eIF2a phosphorylation by PERK. Reaction buffer was composed of 50 mM HEPES (pH 7.4), 10 mM MgCl2, 1 mM EGTA and 0.01% (v/v) BrijTM-35. Reactions were initiated by the addition of substrate and ATP, followed by incubation for 1 h at RT prior to addition of EDTA and the anti-peIF2a antibody. FRET was measured by an EnVision Plate Reader (PerkinElmer). Data were plotted as percent inhibition along a 10-point 3-fold dilution series of inhibitors. IC50 values were calculated using 4-parameter logistical fitting in XLFit.
(§1) The PERK activity of analog I was evaluated using cell-free biochemical assays. In these assays, PERK phosphorylation of eIF2a was assessed using a FRET-based labelled protein assay. Compounds were then evaluated for cellular activity by quantifying inhibition of eIF2a phosphorylation in HEK293 cells treated with the ER inducer tunicamycin [7].
In general terms: Time-resolved FRET reads energy transfer from a long-lived donor to a nearby acceptor.

For the next test, the system named is p-eIF2α. Briefly: Cellular PERK inhibition: p-eIF2a TR-FRET in tunicamycin-treated HEK293-EGFP-eIF2a cells. The format is cell-based. The method, then:
Methods used to evaluate in vitro cellular PERK inhibition are described and published elsewhere. In brief, stableHEK293 cells were created using lentiviral particles harboring a GFP-eIF2a expression vector. Transfectants were selected by puromycin and enriched using fluorescent cell sorting based on GFP expression. HEK293-EGFP-eIF2a cells were plated at 5000 cells/well in 384-well assay plates and incubated overnight. The following day, pyrrolopyrimidine analogs were added to wells using an Echo acoustic dispenser and incubated for 30 min. ER stress was induced by the addition of tunicamycin to the wells at […] for 2 h. Cells were lysed and peIF2a was evaluated using a TR-FRET system, as described above.
as §1

[1] abbreviates: cell-free TR-FRET, GFP-eIF2a substrate, read-out: PERK IC50.
The mark [2] stands for this setting: Homo sapiens, HEK293 cells, tunicamycin-induced ER stress, read-out: p-eIF2α IC50.
[3] abbreviates: bound stated, read-out: biochemical potency.
Where [4] appears, read: bound stated, read-out: cellular potency.

Turning to `Cc1cc(NC(=O)[C@@H](O)c2cccc(F)c2)ccc1-c1cn(C)c2ncnc(N)c12` [Compound 12, (S)-N-(4-(4-amino-7-methyl-7H-pyrrolo[2,3-d]pyrimidin-5-yl)-3-methylphenyl) -2-(3-fluorophenyl) -2-hydroxyacetamide], the values for the IC50 at PERK (setting [1]) and in the test with p-eIF2α (setting [2]) were 7.8 nM and 57 nM, respectively.
Consider `Cc1cc(NC(=O)[C@H](O)c2ccccc2)ccc1-c1cn(C)c2ncnc(N)c12` [Compound 13], for which the IC50 at PERK (setting [1]) came to 1.8 nM; in the test on p-eIF2α (setting [2]), 23 nM.
The corresponding values for `Cc1cc(NC(=O)Cc2ccccc2)ccc1-c1cn(C)c2ncnc(N)c12` [Compound 14] are 5.2 nM and 41 nM.
As to `Cc1cc(NC(=O)CCc2ccccc2)ccc1-c1cn(C)c2ncnc(N)c12` [Compound 15], the IC50 on PERK (setting [1]) came to 126 nM; in the test on p-eIF2α (setting [2]) it was 1930 nM.
The matching figures for `Cc1cc(NC(=O)c2ccccc2)ccc1-c1cn(C)c2ncnc(N)c12` [Compound 16]: 168 nM and 3960 nM.
The corresponding values for `Cc1cc(NC(=O)C(F)(F)c2ccccc2)ccc1-c1cn(C)c2ncnc(N)c12` [Compound 17] are 300 nM and 532 nM.
For `Cc1cc(NC(=O)Oc2ccccc2)ccc1-c1cn(C)c2ncnc(N)c12` [Compound 18], the IC50 at PERK (setting [1]) is 3980 nM; with p-eIF2α (setting [2]), over 10000 nM.
As for `Cc1cc(NC(=O)Nc2ccccc2)ccc1-c1cn(C)c2ncnc(N)c12` [Compound 19], the IC50 at PERK (setting [1]) is 21 nM; in the test on p-eIF2α (setting [2]), 211 nM.
Take `Cc1cc(NC(=O)N(C)c2ccccc2)ccc1-c1cn(C)c2ncnc(N)c12` [Compound 20]: the IC50 on PERK (setting [1]) came out at 108 nM; in the test on p-eIF2α (setting [2]), 1750 nM.
With `CO[C@@H](C(=O)Nc1ccc(-c2cn(C)c3ncnc(N)c23)c(C)c1)c1ccccc1` [Compound 21], the figures for the IC50 at PERK (setting [1]) and in the test on p-eIF2α (setting [2]) were 14 nM and 174 nM, respectively.
The matching figures for `Cc1cc(NC(=O)C(C)(O)c2ccccc2)ccc1-c1cn(C)c2ncnc(N)c12` (stereo not shown) [Compound 22]: 56 nM and 184 nM.
On to `Cc1cc(NC(=O)[C@H](N)c2ccccc2)ccc1-c1cn(C)c2ncnc(N)c12` [Compound 23], for which the IC50 on PERK (setting [1]) is 33 nM; in the test with p-eIF2α (setting [2]) it was 581 nM.
The corresponding values for `Cc1nc(N)c2c(-c3ccc(NC(=O)[C@H](O)c4ccccc4F)cc3C)cn(C)c2n1` [Compound 25] are 102 nM and 303 nM.
The matching figures for `Cc1nc(N)c2c(-c3ccc(NC(=O)C(O)c4ccccc4C(F)(F)F)cc3C)cn(C)c2n1` (stereo not shown) [Compound 27]: 343 nM and 2050 nM.
For `Cc1nc(N)c2c(-c3ccc(NC(=O)[C@H](O)c4ccccc4Cl)cc3C)cn(C)c2n1` [Compound 29], the IC50 at PERK (setting [1]) turned out to be 107 nM; in the test with p-eIF2α (setting [2]) it was 713 nM.
With `Cc1cccc([C@@H](O)C(=O)Nc2ccc(-c3cn(C)c4nc(C)nc(N)c34)c(C)c2)c1` [Compound 30], the IC50 on PERK (setting [1]) came to 14 nM; in the test with p-eIF2α (setting [2]), 83 nM.
As for `Cc1nc(N)c2c(-c3ccc(NC(=O)C(O)c4ccccc4C)cc3C)cn(C)c2n1` (stereo not shown) [Compound 31], the values for the IC50 on PERK (setting [1]) and in the test on p-eIF2α (setting [2]) were 26 nM and 122 nM, respectively.
Take `C#Cc1cccc([C@@H](O)C(=O)Nc2ccc(-c3cn(C)c4nc(C)nc(N)c34)c(C)c2)c1` [Compound 32]: the IC50 on PERK (setting [1]) came out at 3 nM; in the test on p-eIF2α (setting [2]), 7.8 nM.
The matching figures for `Cc1nc(N)c2c(-c3ccc(NC(=O)[C@H](O)c4cccc(Br)c4)cc3C)cn(C)c2n1` [Compound 33]: 3 nM and 14 nM.
The corresponding values for `Cc1nc(N)c2c(-c3ccc(NC(=O)[C@H](O)c4cccc(C(F)F)c4)cc3C)cn(C)c2n1` [Compound 34] are 5.9 nM and 21 nM.
Take `Cc1nc(N)c2c(-c3ccc(NC(=O)[C@H](O)c4cccc(C5CC5)c4)cc3C)cn(C)c2n1` [Compound 35]: the IC50 on PERK (setting [1]) was found to be 5.9 nM; in the test on p-eIF2α (setting [2]), 17 nM.
As for `Cc1nc(N)c2c(-c3ccc(NC(=O)[C@H](O)c4cccc(C#N)c4)cc3C)cn(C)c2n1` [Compound 36], the values for the IC50 at PERK (setting [1]) and in the test on p-eIF2α (setting [2]) were 8 nM and 325 nM, respectively.
As for `Cc1nc(N)c2c(-c3ccc(NC(=O)[C@H](O)c4cccc(S(C)(=O)=O)c4)cc3C)cn(C)c2n1` [Compound 37], the IC50 is over 1000 nM on PERK (setting [1]) and over 10000 nM in the test on p-eIF2α (setting [2]).
As to `Cc1nc(N)c2c(-c3ccc(NC(=O)[C@H](O)c4cc(F)cc(Cl)c4)cc3C)cn(C)c2n1` [Compound 40], the IC50 is 2.9 nM on PERK (setting [1]) and 8.5 nM with p-eIF2α (setting [2]).
The corresponding values for `Cc1nc(N)c2c(-c3ccc(NC(=O)[C@H](O)c4cc(F)cc(C#N)c4)cc3C)cn(C)c2n1` [Compound 42] are 4.2 nM and 32 nM.
The corresponding values for `Cc1nc(N)c2c(-c3ccc(NC(=O)[C@H](O)c4cncc(F)c4)cc3C)cn(C)c2n1` [Compound 43] are 52 nM and 562 nM.
The matching figures for `Cc1nc(N)c2c(-c3ccc(NC(=O)[C@H](O)c4cncc(Cl)c4)cc3C)cn(C)c2n1` [Compound 44]: 17 nM and 129 nM.
Take `Cc1nc(N)c2c(-c3ccc(NC(=O)[C@H](O)c4cncc(C(F)(F)F)c4)cc3C)cn(C)c2n1` [Compound 45]: the IC50 at PERK (setting [1]) is 19 nM; in the test on p-eIF2α (setting [2]), 165 nM.
For the molecule `Cc1nc(N)c2c(-c3ccc(NC(=O)[C@H](O)c4cccc(F)c4)cc3F)cn(C)c2n1` [Compound 46], the results for the IC50 at PERK (setting [1]) and in the test on p-eIF2α (setting [2]) were 2.2 nM and 41 nM, respectively.
With `Cc1nc(N)c2c(-c3ccc(NC(=O)[C@H](O)c4cccc(C(F)(F)F)c4)cc3F)cn(C)c2n1` [Compound 47, (R)-N-(4-(4-amino-2,7-dimethyl-7H-pyrrolo[2,3-d]pyrimidin-5-yl)-3-fluorophenyl)-2-hydroxy-2-(3-(trifluoromethyl)phenyl)acetamide], the IC50 is under 5 nM at PERK (setting [3]), 5.1 nM at PERK (setting [1]), 11 nM in the test with p-eIF2α (setting [2]) and under 15 nM with p-eIF2α (setting [4]).
`Cc1cccc([C@@H](O)C(=O)Nc2ccc(-c3cn(C)c4nc(C)nc(N)c34)c(F)c2)c1` [Compound 49]: the IC50 on PERK (setting [1]) is 1.1 nM; in the test with p-eIF2α (setting [2]), 17 nM.
The corresponding values for `CCc1cccc([C@@H](O)C(=O)Nc2ccc(-c3cn(C)c4nc(C)nc(N)c34)c(F)c2)c1` [Compound 50] are 0.9 nM and 25 nM.
The corresponding values for `Cc1nc(N)c2c(-c3ccc(NC(=O)[C@H](O)c4cc(F)cc(C(F)(F)F)c4)cc3F)cn(C)c2n1` [Compound 51] are 2.7 nM and 62 nM.
On to `Cc1cc(F)cc([C@@H](O)C(=O)Nc2ccc(-c3cn(C)c4nc(C)nc(N)c34)c(F)c2)c1` [Compound 52], for which the IC50 is under 5 nM on PERK (setting [3]), 1.1 nM on PERK (setting [1]), 11 nM in the test with p-eIF2α (setting [2]) and under 15 nM with p-eIF2α (setting [4]).
Regarding `Cc1nc(N)c2c(-c3ccc(NC(=O)[C@H](O)c4cccc(F)c4)cc3Cl)cn(C)c2n1` [Compound 53], the IC50 on PERK (setting [1]) is 17 nM; in the test on p-eIF2α (setting [2]) it was 56 nM.
The matching figures for `Cc1nc(N)c2c(-c3ccc(NC(=O)[C@H](O)c4cccc(C(F)(F)F)c4)cc3Cl)cn(C)c2n1` [Compound 54]: 2.7 nM and 21 nM.
